This is an account of results in PMC3160846 (PLoS ONE, 2011).

The structures appear in SMILES notation. Several values for one entry are separate records, joined by “and”; a condition that tells them apart may be missing. Equal values may be shown once.

In general, AUC(0-inf) refers to total exposure, with the tail of the curve extrapolated. One may read the clearance as the rate of elimination divided by the concentration.

This series is described as follows: Pharmacokinetic study in rats. Type of series: in vivo. Particulars: 5 mg/kg i.v. The method, then:
Male Sprague-Dawley rats weighing 300–400 g each (8–12 weeks old) were obtained from BioLASCO, Taiwan Co., Ltd., Ilan, Taiwan. Animals were surgically prepared with a jugular-vein cannula one day prior to dosing and fasted overnight (∼18–20 h) prior to dosing. Water was available ad libitum throughout the experiment. Single 5 mg/kg dose of BPR1K653, as a DMA/PEG (20/80, v/v) solution, was separately administered to groups of 3 rats each intravenously by a bolus injection via the jugular-vein cannula. At 0 (prior to dosing), 2, 5, 15 and 30 min, and at 1, 2, 4, 6, 8 and 24 h after dosing, a blood sample (0.15 mL) was collected from each animal via the jugular-vein cannula and stored in ice (0–4°C). Plasma was separated from the blood by centrifugation (14,000 g for 15 min at 4°C in a Beckman Model Allegra™ 6R centrifuge) and stored in a freezer (−20°C). All samples were analyzed for the parent drug by LC-MS/MS. LC/MS/MS conditions: The chromatographic system consisted of an Agilent 1200 series LC system and an Agilent ZORBAX Eclipse XDB-C8 column (5 µm, 3.0×150 mm) was connected to a MDS Sciex API3000 tandem mass spectrometer, which was equipped with a Turbo V™ ESI in the positive scanning mode at 600°C. Data was acquired via the multiple reactions monitoring (MRM) system. The MS/MS ion transitions were monitored at m/z of 541.4/106.4 for BPR1K653. The collision energy of 58.0 V was used for the analyst, BPR1K653. A gradient HPLC method was employed for the separation. Mobile phase A consisted of water containing 0.1% formic acid, and mobile phase B consisted of acetonitrile. The gradient profile was shown as follows (min/%B): 0.0–1.2/5, 1.3–3.9/95, 4.0–5.0/5. The flow rate was set to be 1.5 mL/min. The auto-sampler was programmed to inject 15 µL sample aliquots in every 5 min. The retention time of BPR1K653 was 2.39 min. Plasma concentration data were analyzed with non-compartmental method.

For `CN(C)Cc1ccccc1NC(=O)Nc1ccc(CCNc2ncnc3oc(-c4ccccc4)c(Cl)c23)cc1` [BPR1K653], the “maximum plasma concentration above the in vitro kinase inhibition IC50 of Aurora-A” value is on record as “more than 80 fold” and the “maximum plasma concentration above the in vitro kinase inhibition IC50 of Aurora-B” value was above 200 fold. Besides, the maximum plasma concentration (at 2 min after dosing, 5 mg/kg) was 10 µM and 5463 ng/mL. The AUC(0-inf) (male, Sprague-Dawley, rat, plasma, iv, read-out: Area under the curve (AUC(0-inf))) stood at 1750 ng·h/mL. The half-life (male, Sprague-Dawley, rat, plasma, iv, read-out: Plasma half life (t1/2) (converted)) was 3.9 h. Where the note is “male, Sprague-Dawley, rat, plasma, iv, read-out: Total body clearance (CL)”, the clearance stood at 49.3 mL/min/kg. Besides, the Vd (male, Sprague-Dawley, rat, plasma, iv, read-out: Volume of distribution at the steady state (Vss)) was 10.6 ± 5.1 L/kg. The concentration at 24 h (male, Sprague-Dawley, rat, plasma, iv, 5 mg/kg, read-out: estimated plasma concentration 24 h after dosing) was 3.9 nM and 2.1 ng/mL.
